Experimental data reported in patent US11447485B2, “Class of bifunctional compounds with quanternary ammonium salt structure” (Beijing Showby Pharmaceutical Co., Ltd., priority 2016, dated 2022).
Where two headings read alike, the source gives them in different places.

Assays:
[1] = biological target: T1, human recombinant β2 adrenoceptor (Homo sapiens, UniProt P07550); experiment: cell-based; format: cell-based; conditions: EC50 (β1)/EC50 (β2)
T1 construct: expressed in transfected cells

[2] = test system: tracheal smooth muscle of guinea pig; experiment: Relaxation of CCh-induced constriction of isolated guinea pig tracheal smooth muscle (Experimental Example 1); conditions: for EC50: Cavia porcellus, read-out: EC50 (μM) ± SD
Method: The upper end was connected with a muscle tension transducer, and the specimen was given a resting tension of 1.0 g. Muscle tension changes were recorded, nutrient solution was changed every 20 min, and the experiment was started after 60 min of equilibrium.
Administration Method: After the trachea flake were stabilized, 3×10^−6 mol/L CCh was added to the bath. […] Diastolic condition of the trachea flake was observed. If no response occurred (below the threshold concentration), the next dosage was continued to be added in the order. If any response occurred, the next dosage was added until its diastolic platform was reached. The above operation was repeated until the shrink curve reached the minimum. Finally, 10^−6 mol/L isoproterenol was added to establish maximum relaxation, and the curve was recorded.
Statistical Methods: Statistics was performed using the Sigma Stat statistical software package, the data was analyzed by using the variance analysis. Student-Newman-Keuls (SNK) test was used in comparison among multiple sample averages number. The statistical test level was α=0.05 (bilateral).

T1 sequence (P07550 whole entry): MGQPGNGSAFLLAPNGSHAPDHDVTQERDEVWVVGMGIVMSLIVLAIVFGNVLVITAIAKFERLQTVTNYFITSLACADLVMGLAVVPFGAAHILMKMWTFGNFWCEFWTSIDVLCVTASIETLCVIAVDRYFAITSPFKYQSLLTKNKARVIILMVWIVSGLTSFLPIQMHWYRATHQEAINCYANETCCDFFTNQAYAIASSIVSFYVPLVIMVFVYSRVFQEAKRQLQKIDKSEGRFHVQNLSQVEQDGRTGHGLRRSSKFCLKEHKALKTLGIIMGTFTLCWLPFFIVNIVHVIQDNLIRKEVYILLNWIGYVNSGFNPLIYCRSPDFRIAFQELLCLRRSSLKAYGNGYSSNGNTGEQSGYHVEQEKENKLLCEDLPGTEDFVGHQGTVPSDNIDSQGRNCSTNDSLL

| SMILES | sel (β1/β2) [1] | Time for eliminating inhibition effect (min) ([2]; CCh 3 × 10^−6 mol/L, in vitro) | EC50 [2] [µM] | Onset time (min) ± SD ([2]; CCh 3 × 10^−6 mol/L, in vitro) [min] | Time for eliminating inhibition effect ([2]; CCh 3 × 10^−6 mol/L, in vitro) [min] | Time for eliminating inhibition effect (min) ([2]; CCh 3 × 10^−6 mol/L, in vitro, listed as ipratropium bromide) | EC50 ([2]; constriction induced by CCh 3 × 10^−6 mol/L, in vitro) [µM] |
| --- | --- | --- | --- | --- | --- | --- | --- |
| O=c1ccc2c([C@@H](O)CNCCC[N+]34CCC(CC3)[C@@H](OC[C@@](O)(c3ccccc3)C3CCCC3)C4)ccc(O)c2[nH]1 [Compound 2, (R)-(−)-3-[(R)-2-hydroxy-2-cyclopentyl-2-phenyl]ethoxy-1-(3-{(R)-[2-hydroxy-2-(8-hydroxy-2-oxo-1,2-dihydroquinolin-5-yl)]ethylamino}propyl)-1-azabicyclo[2,2,2]octylonium bromide] | 7.8 | more than 300 min | 0.756 ± 0.26 |  |  |  |  |
| O=CNc1cc([C@@H](O)CNCCCC[N+]23CCC(CC2)[C@@H](OC[C@@](O)(c2ccccc2)C2CCCC2)C3)ccc1O [Compound 4, (R)-(−)-3-[(R)-2-hydroxy-2-cyclopentyl-2-phenyl]ethoxy-1-(4-{(R)-[2-hydroxy-2-(3-formamido-4-hydroxy)phenyl]ethylamino}butyl-1-azabicyclo[2,2,2]octylonium bromide] | 36.8 | more than 300 min | 0.0358 ± 0.011 | 6.23 ± 0.23 |  |  |  |
| O=CNc1cc([C@@H](O)CNCCCCOCC[N+]23CCC(CC2)[C@@H](OC[C@@](O)(c2ccccc2)C2CCCC2)C3)ccc1O [Compound 25, (R)-(−)-3-[(R)-2-hydroxy-2-cyclopentyl-2-phenyl]ethoxy-1-[2-(4-{(R)-[2-hydroxy-2-(3-formamido-4-hydroxy)phenyl]ethylamino}butoxy)ethyl]-1-azabicyclo[2,2,2]octylonium bromide] | 30.8 | more than 300 min | 0.822 ± 0.27 | 6.86 ± 0.22 |  |  |  |
| O=C1COc2c(cc(O)cc2C(O)CNCCCCOCCCCC[N+]23CCC(CC2)C(OCC(O)(c2ccccc2)C2CCCC2)C3)N1 [Compound 26, (R)-(−)-3-[(R)-2-hydroxy-2-cyclopentyl-2-phenyl]ethoxy-1-[5-(4-{(R)-[2-hydroxy-2-(6-hydroxy-2H-1,4-benzoxazin-3(4H)-one-8-yl)]ethylamino}butoxy)pentyl]-1-azabicyclo[2,2,2]octylonium bromide] | 18.8 | more than 300 min | 0.087 ± 0.021 | 6.56 ± 0.65 |  |  |  |
| OCc1cc(C(O)CNCCCCOCCCC[N+]23CCC(CC2)C(OCC(O)(c2ccccc2)C2CCCC2)C3)ccc1O [Compound 27, (R)-(−)-3-[(R)-2-hydroxy-2-cyclopentyl-2-phenyl]ethoxy-1-[4-(4-{(R)-[2-(3-hydroxymethyl-4-hydroxy)phenyl-2-hydroxy]ethylamino}butoxy)butyl-1-azabicyclo[2,2,2]octylonium bromide] | 78.9 | more than 300 min | 0.152 ± 0.086 | 5.54 ± 0.43 |  |  |  |
| OCc1cc(C(O)CNCCOCCOCCOCC[N+]23CCC(CC2)C(OCC(O)(c2ccccc2)C2CCCC2)C3)ccc1O [Compound 45, (R)-(−)-3-[(R)-2-hydroxy-2-cyclopentyl-2-phenyl]ethoxy-1-(2-{2-[2-(2-{(R)-[2-(3-hydroxymethyl-4-hydroxy)phenyl-2-hydroxy]ethylamino}ethoxy)ethoxy]ethoxy}ethyl)-1-azabicyclo[2,2,2]octylonium bromide] | 120.3 | more than 300 min | 0.0278 ± 0.0091 | 6.39 ± 0.56 |  |  |  |
| O=CNc1cc(C(O)CNCCOCCOCC[N+]23CCC(CC2)C(OCC(O)(c2ccccc2)C2CCCC2)C3)ccc1O [Compound 46, (R)-(−)-3-[(R)-2-hydroxy-2-cyclopentyl-2-phenyl]ethoxy-1-{2-[2-(2-{(R)-[2-hydroxy-2-(3-formamido-4-hydroxy)phenyl]ethylamino}ethoxy)ethoxy]ethyl}-1-azabicyclo[2,2,2]octylonium chloride] | 68.9 | more than 300 min | 0.136 ± 0.068 | 6.75 ± 0.33 |  |  |  |
| O=c1ccc2c([C@@H](O)CNCCOCCOCC[N+]34CCC(CC3)[C@@H](OC[C@@](O)(c3ccccc3)C3CCCC3)C4)ccc(O)c2[nH]1.[Cl-] [Compound 50] | 56.9 | more than 300 min | 0.0135 ± 0.0092 | 6.76 ± 0.32 |  |  |  |
| OCc1cc([C@@H](O)CNCCc2ccc(OCC[N+]34CCC(CC3)[C@@H](OC[C@@](O)(c3ccccc3)C3CCCC3)C4)cc2)ccc1O [Compound 57, (R)-(−)-3-[(R)-2-hydroxy-2-cyclopentyl-2-phenyl)]ethoxy-1-{2-[4-(2-{[(R)-[2-(3-hydroxymethyl-4-hydroxy)phenyl-2-hydroxy]ethylamino}ethyl)phenoxy]ethyl}-1-azabicyclo[2,2,2]octylonium bromide] | 68.8 | more than 300 min | 0.0265 ± 0.016 | 6.03 ± 0.18 |  |  |  |
| O=c1ccc2c([C@@H](O)CNCc3ccc(OCCC[N+]45CCC(CC4)[C@@H](OC[C@@](O)(c4ccccc4)C4CCCC4)C5)cc3)ccc(O)c2[nH]1 [Compound 58, (R)-(−)-3-[(R)-2-hydroxy-2-cyclopentyl-2-phenyl]ethoxy-1-{3-[4-(1-{(R)-[2-hydroxy-2-(8-hydroxy-2-oxo-1,2-dihydroquinolin-5-yl)]ethylamino}methyl)phenoxy]propyl}-1-azabicyclo[2,2,2]octylonium bromide] | 89.8 | more than 300 min | 0.0131 ± 0.0088 | 5.56 ± 0.24 |  |  |  |
| CC(C)(Cc1ccc(OCC[N+]23CCC(CC2)[C@@H](OC[C@@](O)(c2ccccc2)C2CCCC2)C3)cc1)NC[C@H](O)c1cc(O)cc2c1OCC(=O)N2 [Compound 60, (R)-(−)-3-[(R)-2-hydroxy-2-cyclopentyl-2-phenyl]ethoxy-1-{2-[4-(2-{(R)[-2-hydroxy-2-(6-hydroxy-2H-1,4-benzoxazin-3(4H)-one-8-yl)]ethylamino}isobutyl)phenoxy]ethyl}-1-azabicyclo[2,2,2]octylonium bromide] | 12.3 | more than 300 min | 0.0523 ± 0.018 | 6.59 ± 0.43 |  |  |  |
| CC(C)[N+]1(C)[C@@H]2CC[C@H]1C[C@@H](OC(=O)C(CO)c1ccccc1)C2 (some centres unmarked) [Ipratropium bromide, ipratropium bromide, reference compound] |  |  |  | 6.82 ± 0.28 | 185 | short duration of action | 0.0361 ± 0.0046 |
